# Source: ChEMBL document CHEMBL1135119, “Solid-phase synthesis of FKBP12 inhibitors: N-sulfonyl and N-carbamoylprolyl/pipecolyl amides” (Bioorg Med Chem Lett, 2002)
# Molecular target: Peptidyl-prolyl cis-trans isomerase FKBP1A (Homo sapiens, UniProt P62942)
# Test: Ability to inhibit peptidyl-prolyl isomerase (PPIase, or rotamase) activity of FK506 binding protein 12
# Chain of Peptidyl-prolyl cis-trans isomerase FKBP1A (P62942 whole entry): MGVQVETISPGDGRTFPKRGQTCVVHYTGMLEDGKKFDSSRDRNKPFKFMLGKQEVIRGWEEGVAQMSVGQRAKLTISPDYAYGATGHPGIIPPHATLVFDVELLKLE
row,SMILES,Ki
1,O=C(NCCc1ccccc1)C1CCCN1C(=O)NCc1ccccc1 (centres undefined),> 30 µM
2,O=C(NCCCc1ccccc1)C1CCCN1S(=O)(=O)/C=C/c1ccccc1 (centres undefined),1.3 µM
3,O=C(NCc1ccccc1)C1CCCCN1S(=O)(=O)/C=C/c1ccccc1 (centres undefined),3.9 µM
4,CCCCNC(=O)C1CCCCN1S(=O)(=O)/C=C/c1ccccc1 (centres undefined),11 µM
5,CCc1ccc(S(=O)(=O)N2CCCCC2C(=O)NCc2ccccc2)cc1 (centres undefined),1.3 µM
6,O=C(NCc1ccccc1)C1CCCN1S(=O)(=O)CCc1ccccc1 (centres undefined),22 µM
7,CCCCCCCCS(=O)(=O)N1CCCC1C(=O)NCCCc1ccccc1 (centres undefined),5.4 µM
8,O=C(NCCCc1ccccc1)C1CCCCN1S(=O)(=O)/C=C/c1ccccc1 (centres undefined),1.1 µM
9,O=C(NCCCCc1ccccc1)[C@@H]1CCCCN1C(=O)NCc1ccccc1,1.6 µM
10,O=C(NCCCc1ccccc1)C1CCCN1S(=O)(=O)c1ccccc1 (centres undefined),9.5 µM
11,CCc1ccccc1NC(=O)N1CCCC1C(=O)NCCCc1ccccc1 (centres undefined),> 50 µM
12,O=C(NCc1ccccc1)C1CCCN1S(=O)(=O)/C=C/c1ccccc1 (centres undefined),> 50 µM
13,O=C(NCc1ccccc1)C1CCCN1C(=O)NCc1ccccc1 (centres undefined),> 50 µM
14,O=C(NCCc1ccccc1)C1CCCN1S(=O)(=O)c1ccccc1 (centres undefined),37 µM
15,CCCCNC(=O)C1CCCCN1S(=O)(=O)Cc1ccccc1 (centres undefined),> 50 µM
16,CCCCNC(=O)C1CCCN1C(=O)Nc1ccccc1CC (centres undefined),> 50 µM
17,CCc1ccc(S(=O)(=O)N2CCCCC2C(=O)NCCc2ccccc2)cc1 (centres undefined),1.6 µM
18,O=C(NCCCc1ccccc1)[C@@H]1CCCN1C(=O)NCc1ccccc1,4.2 µM
19,O=C(NCc1ccccc1)C1CCCCN1S(=O)(=O)c1ccccc1 (centres undefined),2.5 µM
20,CCCCCCCCS(=O)(=O)N1CCCC1C(=O)NCCc1ccccc1 (centres undefined),> 50 µM
21,O=C(NCCCc1ccccc1)C1CCCCN1S(=O)(=O)c1ccccc1 (centres undefined),0.72 µM
22,CCCCCCCCS(=O)(=O)N1CCCC1C(=O)NCc1ccccc1 (centres undefined),> 50 µM
23,CCCCNC(=O)C1CCCN1S(=O)(=O)CCc1ccccc1 (centres undefined),42 µM
24,CCCCNC(=O)C1CCCCN1S(=O)(=O)c1ccc(CC)cc1 (centres undefined),1.2 µM
25,CCc1ccccc1NC(=O)N1CCCC1C(=O)NCCc1ccccc1 (centres undefined),> 50 µM

row,SMILES,Ki
1,O=C(NCCc1ccccc1)C1CCCN1C(=O)Nc1ccccc1 (centres undefined),30 µM
2,O=C(NCCCc1ccccc1)C1CCCN1C(=O)Nc1ccccc1 (centres undefined),1.4 µM
3,CCCCNC(=O)C1CCCN1C(=O)NC1CCCCC1 (centres undefined),> 50 µM
4,O=C(NCCc1ccccc1)C1CCCCN1S(=O)(=O)Cc1ccccc1 (centres undefined),13 µM
5,O=C(NCCc1ccccc1)C1CCCCN1S(=O)(=O)/C=C/c1ccccc1 (centres undefined),2.4 µM
6,Cc1ccc(S(=O)(=O)N2CCCC2C(=O)NCCCc2ccccc2)cc1 (centres undefined),7.6 µM
7,CCCCNC(=O)C1CCCN1S(=O)(=O)c1ccc(C)cc1 (centres undefined),> 50 µM
8,O=C(NCc1ccccc1)C1CCCCN1S(=O)(=O)Cc1ccccc1 (centres undefined),39 µM
9,CCCCNC(=O)C1CCCN1C(=O)NCc1ccccc1 (centres undefined),> 50 µM
10,O=C(NCCc1ccccc1)C1CCCN1C(=O)NC1CCCCC1 (centres undefined),> 50 µM
11,Cc1ccc(S(=O)(=O)N2CCCC2C(=O)NCCc2ccccc2)cc1 (centres undefined),33 µM
12,O=C(NCCCc1ccccc1)[C@@H]1CCCN1S(=O)(=O)Cc1ccccc1,2.8 µM
13,CCCCNC(=O)C1CCCN1S(=O)(=O)c1ccccc1 (centres undefined),> 50 µM
14,O=C(NCCc1ccccc1)C1CCCN1S(=O)(=O)/C=C/c1ccccc1 (centres undefined),22 µM
15,O=C(NCCCc1ccccc1)C1CCCN1S(=O)(=O)CCc1ccccc1 (centres undefined),13 µM
16,O=C(NCc1ccccc1)C1CCCN1C(=O)Nc1ccccc1 (centres undefined),33 µM
17,CCc1ccccc1NC(=O)N1CCCC1C(=O)NCc1ccccc1 (centres undefined),> 50 µM
18,O=C(NCCc1ccccc1)C1CCCCN1S(=O)(=O)c1ccccc1 (centres undefined),1.5 µM
19,O=C(NCCCc1ccccc1)C1CCCCN1S(=O)(=O)Cc1ccccc1 (centres undefined),2.2 µM
20,O=C(NCc1ccccc1)C1CCCN1C(=O)NC1CCCCC1 (centres undefined),> 50 µM
21,O=C(NCCc1ccccc1)C1CCCN1S(=O)(=O)CCc1ccccc1 (centres undefined),32 µM
22,O=C(NCCCc1ccccc1)C1CCCN1C(=O)NC1CCCCC1 (centres undefined),> 33 µM
23,Cc1ccc(S(=O)(=O)N2CCCC2C(=O)NCc2ccccc2)cc1 (centres undefined),> 50 µM
24,CCCCNC(=O)C1CCCCN1S(=O)(=O)c1ccccc1 (centres undefined),4.7 µM

# Tested on: Mus musculus
# Test: Recovery of TH-immunostaining in […]-treated mice by post-MPTP treatment at a peroral dose of 10 mg/kg
# Format: functional, organism-based
# Set-up: dose 10 mg/kg
row,SMILES,Recovery
1,O=C(NCCCCc1ccccc1)[C@@H]1CCCCN1S(=O)(=O)Cc1ccccc1,37%
2,O=C(NCCCCc1ccccc1)[C@@H]1CCCCN1C(=O)NCc1ccccc1,42%
3,O=C(NCCCc1ccccc1)[C@@H]1CCCN1C(=O)NCc1ccccc1,31%
4,CCC(C)(C)C(=O)C(=O)N1CCC[C@H]1C(=O)OCCCc1cccnc1,40%
5,O=C(NCCCc1ccccc1)[C@@H]1CCCN1S(=O)(=O)Cc1ccccc1,17%
